Test results taken from patent publication US6528095B1, “Anti-atherosclerotic and anti-thrombotic agent and the use thereof” (Potchefstroom University for Christian Higher Education, priority 2000, dated 2003).

What was measured:
[1] = Pectin / calcium acetate supplementation in human males: body weight and BMI; assay type: in vivo
From the text: The acetate supplement (phase 2), however, caused a decrease (from 88.16±12.35 kg to 83.09±10.80 kg) in body weight. Although this decrease may not be of statistical significance, it can be clinically significant in the cases of those subjects who lost weight.

[2] = Supplementation in human males: haemorheological variables (haematocrit, haemoglobin, plasma viscosity); assay type: in vivo; settings: for VISCOSITY: plasma
Protocol: (§1) The respective effects of pectin and an acetate when administered to the colon of a mammal were determined during a first experiment. The experiment was conducted in the following two phases: [drawing 1]
(§2) Twenty human males participated in the experimentation and these subjects were not on any medication for any chronic diseases at the time, and also had no history of cardiovascular disease. All the subjects were at the time following a relatively high fibre, low fat diet. During the first phase ten subjects consumed a total of 15 grams of pectin per day in four aliquots, while the other ten consumed a total of 15 grams of placebo (starch) per day in four aliquots.
(§3) During the second phase, the first group consumed a total of 7.5 grams of calcium acetate per day in four aliquots and the second group consumed a total of 15 grams of pectin per day in four aliquots. The calcium acetate was administered in capsules which were coated with a protective coating comprising a resin known commercially as shellac. This protective coating is resistant to digestion and solution in the stomach and small intestines, is but not resistant to the enzymes of the organisms usually found in the colon, so that the calcium acetate was thus released in the colon.
(§4) Blood samples where taken from the subjects after each phase and a large number of variables where tested.

fibrin clot = experiment: Supplementation in human males: haemostatic variables and characteristics of fibrin networks developed in plasma; assay type: in vivo; settings: for CLOT (FIBRIN): clot fibrin content; for LYSIS TIME (t 50%): clot; for COMPACTION: fibrin clot; for MPC: macromolecular protein complex; for μ,: mass length ratio from turbidity; for FIBRINOGEN: plasma
Protocol: as §1, §2, §3, §4

blood lipids = experiment: Supplementation in human males: lipid variables; assay type: in vivo; settings: for TC: total cholesterol; for TG: triglycerides
Protocol: as §1, §2, §3, §4

[3] = Supplementation in human males: metabolic variables; settings: for FFA: free fatty acids; for IR: insulin resistance; for TP: total protein
Protocol: as §1, §2, §3, §4

[4] = Pectin / calcium acetate supplementation in human males: body weight and BMI; assay type: in vivo; remark: listed apart in the source
[5] = phase 2, end of supplementation (pectin 15 g/day; calcium acetate 7.5 g/day)
[6] = phase 1, end of supplementation (pectin 15 g/day)

## pectin
[1]; phase 2, baseline
  BMI: 29.46 kg/m^2
  BODY WEIGHT: 92.07 kg
[1]; [5]
  BMI: 29.32 kg/m^2
  BODY WEIGHT: 91.55 kg
[2]; phase 1, baseline
  HAEMATOCRIT: 48.70%
  HAEMOGLOBIN: 10.30 mmol/L
  VISCOSITY: 1.81 cP
[2]; [6]
  HAEMATOCRIT: 48.10%
  HAEMOGLOBIN: 9.60 ± mmol/l
  VISCOSITY: 1.60 ± cP
[2]; phase 2, baseline
  HAEMATOCRIT: 47.38%
  HAEMOGLOBIN: 10.82 mmol/L
  VISCOSITY: 1.75 cP
[2]; [5]
  HAEMATOCRIT: 45.39%
  HAEMOGLOBIN: 9.75 ± mmol/l
  VISCOSITY: 1.62 ± cP
Fibrin clot; phase 1, baseline
  CLOT (FIBRIN): 2.22 g/L
  LYSIS TIME (t 50%): 285.6
  COMPACTION: 21.51%
  MPC: 0.1218 g/L
  μ,: 19.94 Dal/cm × 10^12
  FIBRINOGEN: 3.51 g/L
Fibrin clot; [6]
  CLOT (FIBRIN): 1.90 ± g/l
  LYSIS TIME (t 50%): 232.9 ±
  COMPACTION: 30.16 ± %
  MPC: 0.0836 ± g/l
  μ,: 24.80 ± Dal/cm × 10^12
  FIBRINOGEN: 3.30 g/L
Fibrin clot; phase 2, baseline
  CLOT (FIBRIN): 2.55 g/L
  LYSIS TIME (t 50%): 285.6
  COMPACTION: 20.67%
  MPC: 0.1002 g/L
  μ,: 19.02 Dal/cm × 10^12
  FIBRINOGEN: 4.11 g/L
Fibrin clot; [5]
  CLOT (FIBRIN): 1.86 ± g/l
  LYSIS TIME (t 50%): 132.9 ±
  COMPACTION: 31.53 ± %
  MPC: 0.0807 ± g/l
  μ,: 32.10 ± Dal/cm × 10^12
  FIBRINOGEN: 3.72 g/L
Blood lipids; pectin supplementation
  decrease in hydrogen peroxide (free radical) content of blood lipids: 49%
Blood lipids; phase 1, baseline
  % HDL-C: 18.30%
  ApoA: 1.60 mmol/L
  ApoB: 1.70 mmol/L
  HDL-C: 1.20 mmol/L
  LDL-C: 4.70 mmol/L
  TBARM: 0.60 µM
  hydrogen peroxide (H2O2): 1.70 µM
  TC: 6.50 mmol/L
  TG: 2.00 mmol/L
Blood lipids; [6]
  % HDL-C: 18.20 ± %
  ApoA: 1.23 ± mmol/l
  ApoB: 1.29 ± mmol/l
  HDL-C: 1.03 ± mmol/l
  LDL-C: 4.10 ± mmol/l
  TBARM: 0.30 µM
  hydrogen peroxide (H2O2): 0.84 ± μM
  TC: 5.67 ± mmol/l
  TG: 1.78 mmol/L
Blood lipids; phase 2, baseline
  % HDL-C: 15.46%
  ApoA: 1.53 mmol/L
  ApoB: 1.77 mmol/L
  HDL-C: 0.92 mmol/L
  LDL-C: 5.17 mmol/L
  TBARM: 2.06 µM
  hydrogen peroxide (H2O2): 1.20 µM
  TC: 6.89 mmol/L
  TG: 1.99 mmol/L
Blood lipids; [5]
  % HDL-C: 18.79 ± %
  ApoA: 1.39 ± mmol/l
  ApoB: 1.39 ± mmol/l
  HDL-C: 1.13 ± mmol/l
  LDL-C: 4.59 mmol/L
  TBARM: 0.61 ± μM
  hydrogen peroxide (H2O2): 0.73 ± μM
  TC: 6.07 mmol/L
  TG: 1.78 mmol/L
[3]; phase 1, baseline
  FFA: 0.39 mmol/L
  IR: 4.29
  ALBUMIN: 47.23 g/L
  GLUCOSE: 3.98 mmol/L
  INSULIN: 10.95 μU/ml
  PPA/ALB: 8.26 × 10^1
  TP: 60.55 g/L
[3]; [6]
  FFA: 0.31 ± mmol/l
  IR: 4.16
  ALBUMIN: 47.79 g/L
  GLUCOSE: 3.72 mmol/L
  INSULIN: 11.25 μU/ml
  PPA/ALB: 6.49 ± × 10^1
  TP: 66.84 g/L
[3]; phase 2, baseline
  FFA: 0.48 mmol/L
  IR: 9.40
  ALBUMIN: 45.53 g/L
  GLUCOSE: 4.29 mmol/L
  INSULIN: 18.55 μU/ml
  PPA/ALB: 10.50 × 10^1
  TP: 72.36 g/L
[3]; [5]
  FFA: 0.40 ± mmol/l
  IR: 5.77
  ALBUMIN: 45.48 ± g/l
  GLUCOSE: 4.00 mmol/L
  INSULIN: 13.83 μU/ml
  PPA/ALB: 8.78 ± × 10^1
  TP: 75.21 g/L
[4]; pectin supplemented subject group
  weight reduction: No weight reduction
[4]; phase 1, baseline
  BMI: 27.50 kg/m^2
  BODY WEIGHT: 89.50 kg
[4]; [6]
  BMI: 27.40 kg/m^2
  BODY WEIGHT: 89.10 kg
